Blank lines part the entries; values can stand above or below the compound they belong to.
Assay: Determination of the surface tension (Kruss tensiometer K12, ring method)
Format: physicochemical
Details: for surface tension: measurement solutions in deionised water, 20° C.
Method: • Instrument: Kruss tensiometer (model K12) • Temperature of the measurement solutions: 20° C. • Measurement module employed: ring • Concentration of the measurement solutions: about 0.5 to 3.0 g/l in deionised water
Further details on the method are given in the European Commission publication: Classification, Packaging and Labelling of Dangerous Substances in the European Union, Part II-Test Methods, Annex V-Methods for Determining the Physical-Chemical Properties, the Toxicity and the Ecotoxicity, Part A, Surface Tension (A.5), January 1997, pages 51-57, and also the OECD Guideline for the Testing of Chemicals, Section 1, Physical-Chemical Properties, method 115, pages 1-7, adopted: 27.07.95, the contents of which in this respect are expressly part of the disclosure content of the present application.

Surface tension of an aqueous solution of the sodium salt (at 0.016 mol/l, sodium salt (2 eq of NaOH/eq of carboxylic acid)): 33.4 mN/m
Compound: O=C(O)CCCCCCCCCCSCCC(F)(F)F [Example 5c, 11-(3,3,3-Trifluoropropylsulfanyl)undecanoic acid]

Compound: O=S(=O)([O-])CCCCCCCCCCCSCCC(F)(F)F.[Na+] [CF3—CH2—CH2—S—(CH2)11—SO3Na]
surface tension (Concentration: 100.7 mg/100 ml): 38.55 mN/m

surface tension (concentration: 99.8 mg/100 ml): 31.29 mN/m
Compound: 11-(S-trifluoromethyl)mercaptoundecane-1-sulfonic acid sodium salt [CF3—S—(CH2)11—SO3Na]

From patent US20090320718A1, “FLUOROSURFACTANTS” (priority 2006, published 2009)
